Measured values reported in patent publication US20050020544A1, “Bicyclic CB2 cannabinoid receptor ligands” (priority 2002, published 2005).

Key:
[1] = test system: male Sprague-Dawley rats; assay: Chronic constriction nerve injury, neuropathic pain (Von Frey filaments); type: in vivo, rat
Text: The aim of this study was to assess the potential analgesic effects of the novel bicyclic CB2 binding compounds in an animal model of neuropathic pain. A peripheral monopathy was induced in the right hind limb of rats following a chronic constriction of the sciatic nerve (Bennet, G. J. & Xie, Y-K., Pain 33: 87-107, 1988). The development of mechanical allodyna was monitored using an established behavioral test (Von Frey filaments).
Pre-surgery baseline values were ascertained as the mean of 2 pre-surgery values. Once the baseline values had been established, the animals were surgically prepared by constricting the right sciatic nerve with 4 chromic cat gut loose ligatures.
The design was randomized, performed in a masked fashion as to whether drug or vehicle is being given. The animals, male Sprague-Dawley rats (average body weight 240-290 g), were allowed to acclimatize to the behavioral testing equipment prior to testing. On the testing day, the animals, at least six per treatment group, were given i.p. a single dose of one of the test compounds in a volume of 2.5 ml/kg. Fifteen minutes later, a series of Von Frey filaments (pre-calibrated prior to testing) were applied to the plantar surface of the hind paw, from below. The filaments were applied in ascending order starting with the weakest force and the withdrawal threshold for both the ipsilateral and contralateral hind paws was evaluated. Each filament was indented on the mid-plantar surface of the foot to the point where it just starts to bend; this is repeated approximately 8-10 times per filament at a frequency of approximately 1 Hz. The withdrawal threshold is defined as being the lowest force of two or more consecutive Von Frey's filaments to elicit a reflex withdrawal response (i.e. a brief paw flick) and is measured in grams.
The results are expressed as % increase in the threshold of response to Von Frey's filaments in the test compound treated group versus the vehicle treated animals and per definition the vehicle treated group yields a null baseline value. The black column represents the morphine treated animals (4 mg/kg), the gray and the dotted column bars represent two doses of compound A (0.5 and 1 mg/kg respectively).

[2] = test system: Male Sprague Dawley rats; assay: Effect on the cardiovascular system (MABP, heart rate); type: in vivo, rat
Procedure: The purpose of this study was to assess the safety of the test compounds in male Sprague Dawley rats (270-350 g, Harlan, Israel). The test compounds were dissolved in vehicle, diluted 1:20 in sterile saline and injected either i.v. or i.p. at doses ranging from 0.1 to 2 mg/kg for i.v. administration or 10 to 40 mg/kg for i.p. administration, in volumes of 0.5 ml/100 g body weight. Each treatment group was composed of at least 6 animals. A cannula (PE 50, Clay Adams, USA) was implanted into the femoral artery under halothane anesthesia (induction 4% and maintenance 1%)). The vein was cannulated for drug administration. The arterial cannula was attached to a pressure transducer (Ohmeda DT-XX USA). The transducer was connected to a data acquisition system (Biopac, USA). Recordings of the heart rate (HR), mean arterial blood pressure (MABP) and electrocardiogram (ECG lead 2) were taken for 20 minutes before treatment, for the establishment of a stable baseline, up to 60 minutes following injections of the test compounds. Animals were also connected to a temperature recorder through a rectal thermistor probe (YSI Model 400, USA) and rectal temperature was monitored along the duration of the study.
Differences between vehicle and treatments are compared by one-way ANOVA, followed by post-hoc Newman-Keuls tests (Prism software from Graphpad, San Diego).

[3] = test system: ICR male mice; assay: Tail flick model for acute peripheral pain, i.p.; type: in vivo, mouse
Method in brief: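 Male ICR mice (≥6/group) dosed i.p. at 0.1–10 mg/kg in Cremophor EL:ethanol diluted 1:20 in saline; morphine HCl 5 mg/kg as positive control. Tail illuminated 2 cm from tip at set times post-dose; latency (s) recorded in duplicate. Read-outs: latency and % animals showing analgesia, mean±SE; ANOVA/Tukey or Fisher's exact test, p<0.05.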

[4] = test system: Male ICR mice; assay: Psychomimetic effects: open field locomotor activity and rectal temperature; type: in vivo, mouse; conditions: for hypothermia (rectal body temperature): i.v., end of open-field examination
Procedure: Male ICR mice (25 g average body weight, Harlan, Israel) are used for a series of tests for psychotropic effects, specifically locomotor activity and rectal temperature. […] Naïve mice were used as control. Each treatment group is composed of at least 6 animals.
Animals were placed in an open field (60×50 cm) 5 minutes after i.v. administration of the treatment or 30 minutes after i.p. injection. Their locomotor activity was recorded using a video based computer system (ViewPoint, France). The following parameters were recorded for 3 minutes: the total distance, the time and the speed traveled by the animals. An additional parameter, rectal body temperature, was monitored at the end of the open-field examination using a thermostat thermometer (Cole Parker Model 8402-00) and a thermostat probe (YSI 400 Model 402).
Results are expressed as mean±SE and the differences between vehicle and treatments are compared by ANOVA, followed by post-hoc Tukey's test.

[5] = 20 mg/kg i.p., one hour follow-up
[6] = 10 mg/kg i.p., 330 minutes (five and a half hours)

CCCCCCC(C)(C)c1cc(OC)c(C2C=C(CO)C3CC2C3(C)C)c(OC)c1 (single isomer, unassigned; (+)) [HU-308, (+) {4-[4-(1,1-dimethylheptyl)-2,6-dimethoxy-phenyl]-6,6-dimethyl-bicyclo[3.1.1]hept-2-en-2-yl}-methanol, reference compound]
increase in pain threshold (Von Frey) versus vehicle ([1]; 5 mg/kg, separate experiment): 117%

CCCCCCC(C)(C)c1cc(O)c(C2CC(=O)C3CC2C3(C)C)c(O)c1 (single isomer, unassigned; (-)) [Compound A, (−)-4-[4-(1,1-Dimethyl-heptyl)2,6-dihydroxy-phenyl]-6,6-dimethyl-bicyclo[3.1.1)heptan-2-one]
effect on heart rate ([2]; 0.1 mg/kg i.v.): minor insignificant and transient decline in HR
decrease in MABP ([2]; 0.1 mg/kg i.v., 5 minutes post injection): 4 mmHg
time for MABP back to baseline range ([2]; 0.5 mg/kg i.v.): 30 min
decrease in MABP ([2]; 0.5 mg/kg i.v., 5 minutes): about 25 mmHg
time for MABP back to baseline range ([2]; 1 mg/kg i.v.): 45 min
decrease in MABP ([2]; 1 mg/kg i.v., 5 minutes): about 30 mmHg
drop in HR [2, 5]: about 17 beats per minute
drop in HR from baseline [2, 5]: 5%
maximal drop in HR ([2]; higher doses i.v.): about 80 beats per minute
hypotension (decrease in MABP) ([2]; i.p., up to 30 mg/kg): ≤ 15 mmHg
latency time ([3]; 4 mg/kg i.p., thirty minutes): 4.9 s
% animals showing analgesia ([3]; 10 mg/kg i.p., 90 minutes): more than 80%
latency time ([3]; 10 mg/kg i.p., 90 minutes): 7.3 s
% animals showing increased analgesia [3, 6]: 80%
latency time [3, 6]: 4.9 s
% animals showing increased analgesia ([3]; 10 mg/kg i.p., initiation of the study): 100%
analgesia ([3]; 8 and 10 mg/kg i.p., 330 minutes): Significant analgesia was still evident
maximal latency ([3]; maximal tested dose 10 mg/kg i.p., 30 minutes): 7.1 s
increase in pain threshold (Von Frey) versus vehicle ([1]; 0.5 mg/kg i.p., 15 minutes): 71%
increase in pain threshold (Von Frey) versus vehicle ([1]; 1 mg/kg i.p., 15 minutes): 64%
hypothermia (rectal body temperature) [4]: about 2 °C

CCCCCCC(C)(C)c1cc(O)c([C@H]2CC(=O)[C@H]3C[C@@H]2C3(C)C)c(OC(=O)CCC(=O)O)c1 [Compound R, (−)-4-{4-[1,1-Dimethyl-heptyl]-2-succinate-6-hydroxy-phenyl}-6,6-dimethyl-bicyclo[3.1.1]heptan-2-one]
amplitude of HR fluctuations ([2]; 40 mg/kg i.p.): 10%
average drop in HR ([2]; 40 mg/kg i.p.): about 4 beats per minute
reduction in MABP ([2]; i.p., 40 mg/kg): ≤ 36 mmHg
% animals showing analgesia ([3]; 10 mg/kg i.p., 90 minutes): 100%
latency time ([3]; 10 mg/kg i.p., 90 minutes): 8.5 s
% animals showing increased analgesia [3, 6]: 100%
latency time [3, 6]: 6.8 s
% animals with increased resistance to pain ([3]; 10 mg/kg i.p., all along the duration of the study (5.5 hours)): 100%
analgesia compared with 5 mg/kg morphine ([3]; 4 and 8 mg/kg i.p.): still twice better than 5 mg/kg morphine in generating analgesia
total distance covered ([4]; 1, 2, 3, 4, 5 and 6 mg/kg i.v., 3 minutes open field): fluctuations in total distance covered and again this phenomenon had no statistical significance
hypothermia (rectal body temperature) [4]: about 2 °C
